Patent US20250388632A1, “ANNEXIN A1-DERIVED POLYPEPTIDE ANALOGUES” (RESOTHER PHARMA A/S, priority 2022, published 2025)
Where “and” joins values, the source holds several entries; their conditions need not be identical. Identical values can stand only once.

How the values were obtained:
[1] = system: monocytes; experiment: Whole blood monocyte phagocytosis assay (pHrodo E. coli BioParticles, flow cytometry); type: cell-based; conditions: human whole blood, 1 h incubation, then pHrodo E. coli BioParticles 30 min, mean of four experiments
Protocol: AnxA1 N-terminal fragments were assessed in whole blood phagocytosis assay. Whole blood from human subjects (45 μL) was incubated for 1 h with control peptide Anxa1 2-50 (100 nM) and test peptides Compound 1 (100 nM), Compound 2 (100 nM) and Compound 3 (30 nM), or vehicle in a 96-well plate. 50 μl pHrodo E. coli BioParticles Conjugate (5 μg/well) was added to the wells, and the plate was incubated at 37° C., 5% CO2 for 30 min. 150 μl of 4% PFA was added, and the plate incubated at 4° C. for 30 min. 30 μL from each well of the 96-well plate was transferred into flow cytometry tubes with 500 μL RPMI 1640 and 1 μL of Vybrant DyeCycle dye. Tubes were incubated for 30 min at 37° C. and 5% CO2, followed by addition of 2.5 mL of RPMI 1640 Medium in each tube.
Samples were acquired on the Attune NxT Flow Cytometer. Monocyte phagocytosis was determined as an increase in pHrodo Green fluorescence relative to control sample.

[2] = system: polymorphonuclear leukocytes (PMNs); experiment: PMN (neutrophil) chemotaxis, Transwell migration, CellTiter Glo readout; type: cell-based, human; conditions: 10 uM compound in receiver wells; 1 h migration, 37 °C; PMNs from buffy coats of healthy volunteers
Protocol: AnxA1 N-terminal fragments were assessed in polymorphonuclear leukocytes (PMNs) isolated from buffy coats of healthy volunteers. PMNs were resuspended in migration medium (RPMI1640 (ATCC, Cat. No. 30-2001)+0.05% BSA-FAF) to a concentration of 5.5×10^6 cells/mL.
Receiver wells of a Transwell plate were filled with 200 μL of migration medium with 10 uM of compound 1, 2 or 3. Donor plate was inserted and 75 μL of cell suspension was added to upper wells ([…]). Plates were incubated for 1 h (37° C., 5% CO2, 95% humidity). The number of migrated cells was assessed by removing Transwell insert with cells from the plate in order to stop migration, followed by addition of 200 μL CellTiter Glo reagent to lower wells. Plates were incubated for 10 minutes in the dark (at room temperature), and 200 μL was transferred to white 96 well plates (Lumitrac 200). Luminescence was measured by use of EnVision 2104 (Perkin Elmer) (exposition time 0.1 s)
The chemotaxis response was estimated by calculating fold change compared to negative control (vehicle).

Sequence | Fold increase relative to vehicle (monocyte phagocytosis) ([1]; peptide 100 nM) [fold] | Fold increase relative to vehicle (PMN chemotaxis) [2] | Fold increase relative to vehicle (monocyte phagocytosis) ([1]; peptide 30 nM) [fold] | Fold increase relative to vehicle (monocyte phagocytosis) ([1]; peptide 100 nM, listed as AnxA1 2-50) [fold]
AMVSEFLKQAWFIENEEQEYVQTLKSSK (Val24Leu variant of AnxA1 fragment; MISC_FEATURE - Val24Leu variant of AnxA1 fragment) [Compound 1] | 2.6 | 3 fold and 3.1 fold |  | 
AMVSEFLKQAWFIENEEQEYVQTLKSSKGGPGS (Val24Leu variant of AnxA1 fragment; MISC_FEATURE - Val24Leu variant of AnxA1 fragment) [Compound 2] | 2.8 | 2 fold and 2.0 fold |  | 
AMVSEFLKQAWFIENEEQEYVQTLKSSKGGPGSAVSPY (Val24Leu variant of AnxA1 fragment; MISC_FEATURE - Val24Leu variant of AnxA1 fragment) [Compound 3] |  | 1.6 fold | 2.9 | 
AMVSEFLKQAWFIENEEQEYVQTVKSSKGGPGSAVSPYPTFNPSSDVAA (Synthetic sequence having some homology with human annexin 1) [Anxa1 2-50, reference compound] | 1.9 |  |  | ~2
